Source: publication PMC7011792 (Journal of Enzyme Inhibition and Medicinal Chemistry, 2017)
Where two headings read alike, the source gives them in different places.

Columns and labels:
[1] = target: T1, BuChE (EC 3.1.1.8) from horse serum (Equus caballus, UniProt P81908); experiment: biochemical; assay type: biochemical; settings: BuChE from horse serum; mean ± SEM of three experiments
T1 construct: purchased Sigma-Aldrich C0663; host or cells: equine serum
Method: AChE (EC 3.1.1.7, Type VI-S, from electric eel, C3389; from human, C1682) and BuChE (EC 3.1.1.8, from equine serum, C0663; from human, B4186), 5,5'-dithiobis (2-nitrobenzoic acid) (DTNB, D218200), acetylthiocholine iodide (ATC, A5751), and butyrylthiocholine iodide (BTC, B3253) were obtained from Sigma-Aldrich (St. Louis, MO).
The inhibitory effects of the synthesised compounds in this paper were evaluated according to our previously reported method. […] ATC/BTC iodide solution (0.075 M) was prepared in deionised water. […] The assay buffer was prepared as follows: potassium dihydrogen phosphate (1.36 g, 10 mmol) was dissolved in 100 ml of water. The pH of the solution was then adjusted to 8.0 ± 0.1 with KOH. Stock solutions of the test samples were dissolved in ethanol to give a final concentration of 10^−4 M when diluted to the final volume of 3.32 ml. For each compound, a dilution series of at least five different concentrations (normally 10^−5–10^−9 M) were prepared.
For measurement, a cuvette containing 3.0 ml of phosphate buffer, 100 µL of AChE or BuChE, 100 µL of DTNB, and 100 µL of the test compound solution were added in sequence. The reaction was initiated after adding 20 µL of ATC or BTC, and the solution was mixed immediately. […] For the reference value, 100 µL of water replaced the test compound solution. For the blank control, additionally 100 µL of water replaced the enzyme solution. The measurement for each concentration was assayed in triplicate. GraphPad Prism 5 was used for data processing. The inhibition curve was fitted by plotting percentage enzyme activity (100% for the reference) versus logarithm of test compound concentration. The IC50 values were calculated according to the curve, and the data were shown in mean ± SEM.
The inhibitory effects on ChEs of all the target compounds were determined according to Ellman’s method. AChE from electrophorus electricus (eeAChE) and BuChE from equine serum (eqBuChE) were used in the assays.

huAChE = target: T2, huAChE (Homo sapiens, UniProt P22303); experiment: Kinetic study of huAChE inhibition (Lineweaver-Burk, Michaelis-Menten); assay type: biochemical; settings: Lineweaver–Burk plots, 1, 2, 4, 10 nM
T2 construct: purchased Sigma-Aldrich C1682
T2 sequence (P22303 32-614): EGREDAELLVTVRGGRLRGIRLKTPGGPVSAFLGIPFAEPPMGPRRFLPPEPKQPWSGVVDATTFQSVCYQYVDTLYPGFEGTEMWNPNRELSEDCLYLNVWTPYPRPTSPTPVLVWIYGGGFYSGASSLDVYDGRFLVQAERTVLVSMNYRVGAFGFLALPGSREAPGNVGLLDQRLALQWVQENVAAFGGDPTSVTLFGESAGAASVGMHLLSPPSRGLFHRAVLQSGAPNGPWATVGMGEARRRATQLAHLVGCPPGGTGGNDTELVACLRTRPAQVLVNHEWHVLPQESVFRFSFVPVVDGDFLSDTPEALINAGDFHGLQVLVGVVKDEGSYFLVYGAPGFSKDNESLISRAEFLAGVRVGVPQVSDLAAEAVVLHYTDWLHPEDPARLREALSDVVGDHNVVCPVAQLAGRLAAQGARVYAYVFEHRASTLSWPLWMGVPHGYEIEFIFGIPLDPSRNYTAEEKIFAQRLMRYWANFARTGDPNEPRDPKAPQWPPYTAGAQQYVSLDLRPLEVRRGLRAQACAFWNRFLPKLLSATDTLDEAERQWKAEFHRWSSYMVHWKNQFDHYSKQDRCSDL
Method: (§1) Kinetic studies were performed according to methods reported previously. The concentrations of the substrate ATC or BTC were prepared as 25, 50, 90, 150, 226, and 452 µM. Different concentrations of compound 19 with 0, 1, 2, 4, 10 nM, were also prepared by stock solution. For measurement, the enzymatic reaction was extended to 20 min (huAChE and huBuChE) before the determination of the absorption. Graph Pad Prism 5 was applied for data processing. Vmax and Km values of the Michaelis–Menten kinetics were determined by nonlinear regression from substrate-velocity curves, while Lineweaver–Burk plots were fitted by using linear regression method.

huBuChE = target: T3, huBuChE (Homo sapiens, UniProt P06276); experiment: Kinetic study of huBuChE inhibition (Lineweaver-Burk, Michaelis-Menten); assay type: biochemical; settings: Lineweaver–Burk plots, 1, 2, 4, 10 nM
T3 construct: purchased Sigma-Aldrich B4186
T3 sequence (P06276 29-602): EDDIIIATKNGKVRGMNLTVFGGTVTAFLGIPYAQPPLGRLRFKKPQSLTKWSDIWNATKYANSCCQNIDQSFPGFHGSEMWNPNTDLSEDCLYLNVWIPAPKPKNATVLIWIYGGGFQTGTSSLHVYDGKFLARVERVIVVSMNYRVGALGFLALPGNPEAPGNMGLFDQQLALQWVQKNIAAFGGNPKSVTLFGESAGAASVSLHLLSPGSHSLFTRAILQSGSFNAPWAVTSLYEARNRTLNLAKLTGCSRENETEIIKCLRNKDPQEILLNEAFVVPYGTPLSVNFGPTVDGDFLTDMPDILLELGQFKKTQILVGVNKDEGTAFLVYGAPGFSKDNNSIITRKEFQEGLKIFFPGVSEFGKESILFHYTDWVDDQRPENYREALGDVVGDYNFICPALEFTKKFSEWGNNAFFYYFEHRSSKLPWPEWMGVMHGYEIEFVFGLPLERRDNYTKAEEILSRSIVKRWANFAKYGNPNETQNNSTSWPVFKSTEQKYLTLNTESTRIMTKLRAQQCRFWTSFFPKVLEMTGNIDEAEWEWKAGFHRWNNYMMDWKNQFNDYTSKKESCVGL
Method: as §1

Aβ1–42 = target: T4, Aβ1–42 (Homo sapiens, UniProt P05067); experiment: Inhibition of self-induced Aβ1–42 aggregation (Thioflavin T assay); assay type: biochemical; settings: compound 25 μM, 24 h, read-out: Inhibitory rate on self-induced Aβ1-42 aggregation
T4 construct: aliquots of 2.0 µL of Aβ1–42 (AS-64129–05 Anaspec Inc.); purchased Anaspec Inc. AS-64129–05
T4 sequence (P05067 672-713): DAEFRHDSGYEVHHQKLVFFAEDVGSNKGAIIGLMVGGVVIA
Method: Inhibitory effects of the compounds on self-induced Aβ1–42 aggregation were evaluated using a Thioflavin T (ThT)-(T3516, Sigma-Aldrich, St. Louis, MO) binding assay according to the previously reported method. […] The Aβ1–42 and the test sample solutions were incubated for 24 h at the room temperature.
The inhibitory rate of Aβ1–42 self-induced aggregation was calculated according to the following equation: (1-IFi/IFc) × 100%. IFi and IFc were the fluorescence intensities in the presence and absence of inhibitors, respectively, after subtracting the background fluorescence of the 5 mM Thioflavin T solution. Each measurement was repeated in triplicate. The inhibitory rate of the test compound was shown in mean ± SD.

ICR mice [2] = tested on: ICR mice
Method: The activity of AST and ALT, two indicators of liver damage, was determined using corresponding assay kit (EF551 and EF550 for ALT, EH027, and EF548 for AST, Wako, Japan).
One hour after the collection of retrobulbar blood, mice were sacrificed and livers were harvested for morphological studies by using immunohistochemical method. Two 3 mm sections of each liver extending from the hilus to the margin of the left lateral lobe were isolated by Ultra-Thin Semiautomatic Microtome (Leica RM2245, Germany) and immediately placed in 10% buffered formaldehyde, fixed for two days, and embedded together in one paraffin block by using Paraffin Embedding Station (Leica EG1150H, Germany). Subsequently, 5 µm sections were prepared from these paraffin blocks. They were deparaffinated and stained with hematoxylin and eosin or by means of the periodic acid-Schiff procedure for glycogen.

ICR mice [3] = experiment: Morris water maze test, scopolamine-induced cognitive impairment
[4] = 22 h after ig administration, 151.5 µmol/kg, mice serum, n = 6
[5] = 36 h after ig administration, 151.5 µmol/kg, mice serum, n = 6

T1 sequence (P81908 whole entry): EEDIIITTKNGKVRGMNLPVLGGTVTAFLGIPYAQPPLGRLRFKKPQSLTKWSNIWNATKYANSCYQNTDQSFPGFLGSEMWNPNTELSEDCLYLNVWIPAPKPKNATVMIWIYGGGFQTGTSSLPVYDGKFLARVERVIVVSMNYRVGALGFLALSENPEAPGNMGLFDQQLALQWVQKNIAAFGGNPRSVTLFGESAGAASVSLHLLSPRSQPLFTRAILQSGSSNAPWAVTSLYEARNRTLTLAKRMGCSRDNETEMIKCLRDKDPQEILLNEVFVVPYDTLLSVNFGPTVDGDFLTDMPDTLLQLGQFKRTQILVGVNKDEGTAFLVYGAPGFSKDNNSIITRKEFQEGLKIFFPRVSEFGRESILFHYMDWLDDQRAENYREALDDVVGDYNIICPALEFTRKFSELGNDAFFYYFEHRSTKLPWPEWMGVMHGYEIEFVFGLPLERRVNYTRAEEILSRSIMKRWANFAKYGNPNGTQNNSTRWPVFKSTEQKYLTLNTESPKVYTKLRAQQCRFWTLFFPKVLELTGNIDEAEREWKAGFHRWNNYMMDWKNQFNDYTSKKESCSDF

What does the source list for O=C(/C=C/c1ccc([N+](=O)[O-])cc1)NCCCCCCNc1c2c(nc3ccccc13)CCCC2 [Compound 19, (E)-3-(4-nitrophenyl)-N-(6-((1,2,3,4-tetrahydroacridin-9-yl)amino)hexyl)acrylamide]?
IC50 [1]: 6.5 ± 0.6 nM; type of inhibition on huAChE (huAChE): noncompetitive; type of inhibition on huBuChE (huBuChE): mixed-type inhibition; inhibition at 25 µM (Aβ1–42): 31.8%; AST (U/L) (ICR mice [2]; 8 h after ig administration, 151.5 µmol/kg, mice serum, n = 6): 119.6 ± 10.8 U/L; ALT (U/L) (ICR mice [2]; [4]): 44.4 ± 3.9 U/L; AST (U/L) (ICR mice [2]; [4]): 130.6 ± 8.2 U/L; ALT (U/L) (ICR mice [2]; [5]): 40.2 ± 2.5 U/L; AST (U/L) (ICR mice [2]; [5]): 133.9 ± 13.5 U/L; ALT (U/L) (ICR mice [2]; mouse, in vivo): 36.0 ± 2.9 U/L; morphologic changes in liver (ICR mice [2]; mouse, in vivo): did not cause remarkable morphologic changes in liver; Latency to target (second), Day 5 (ICR mice [3]; learning and training, Day 5, oral, plus scopolamine, ICR mice): 54.1 ± 8.9 s; Latency to target (second), Day 6 (ICR mice [3]; learning and training, Day 6, oral, plus scopolamine, ICR mice): 36.5 ± 4.2 s; Latency to target (second), Day 7 (ICR mice [3]; learning and training, Day 7, oral, plus scopolamine, ICR mice): 36.6 ± 4.3 s; Latency to target (second), Day 8 (ICR mice [3]; learning and training, Day 8, oral, plus scopolamine, ICR mice): 35.2 ± 4.7 s; Latency to target (second), Day 9 (ICR mice [3]; learning and training, Day 9, oral, plus scopolamine, ICR mice): 26.1 ± 1.4 s; Latency to Target (ICR mice [3]; probe trial, oral administration plus scopolamine (1 mg/kg ip), ICR mice, mean ± SEM, n = 6): 25.0 ± 1.5 s; trajectory in the Morris water maze test (ICR mice [3]; scopolamine-impaired ICR mice, compared to tacrine group): much shortened distances as compared to tacrine group
